Assays:
Assay in all cases: DiscoverX KINOMEscan kinase profiling (468 assays)
Assay type in all cases: binding
human kinome [1] = molecular target: human kinome (Homo sapiens, UniProt P51817); conditions: read-out: Percent Control
Procedure, shortened: (§1)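 VIP152 was run in DMSO, alongside a DMSO control. Readout was qPCR of DNA-tagged kinase still bound to bead-immobilized biotinylated kinase ligands after compound competition.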

human kinome [2] = molecular target: human kinome (Homo sapiens, UniProt Q9H2G2); conditions: kinase SLK (Entrez SLK); compound concentration 1000 nM; read-out: Percent Control
Procedure, shortened: as §1

human kinome [3] = molecular target: human kinome (Homo sapiens, UniProt Q14680); conditions: MELK; 100 nM; read-out: Percent Control
Procedure, shortened: as §1

human kinome [4] = molecular target: human kinome (Homo sapiens, UniProt O00506); conditions: kinase YSK1 (Entrez STK25); compound concentration 1000 nM; read-out: Percent Control
Procedure, shortened: as §1

human kinome [5] = molecular target: human kinome (Homo sapiens, UniProt Q9HBY8); conditions: kinase SGK2 (Entrez SGK2); compound concentration 1000 nM; read-out: Percent Control
Procedure, shortened: as §1

human kinome [6] = molecular target: human kinome (Homo sapiens, UniProt Q9P1W9); conditions: read-out: Percent Control
Sequence of human kinome (Homo sapiens, UniProt Q9P1W9) (Q9P1W9 whole entry): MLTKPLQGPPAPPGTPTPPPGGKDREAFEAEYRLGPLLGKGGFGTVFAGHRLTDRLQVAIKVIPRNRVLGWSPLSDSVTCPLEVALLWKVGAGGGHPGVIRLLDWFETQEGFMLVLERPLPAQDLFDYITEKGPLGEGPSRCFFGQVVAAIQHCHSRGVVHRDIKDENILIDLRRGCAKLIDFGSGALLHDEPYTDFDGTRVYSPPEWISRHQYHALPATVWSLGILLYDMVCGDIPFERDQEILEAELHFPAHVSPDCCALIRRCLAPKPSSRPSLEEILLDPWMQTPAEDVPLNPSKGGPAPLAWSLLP
Procedure, shortened: as §1

human kinome [7] = molecular target: human kinome (Homo sapiens, UniProt P48736); conditions: read-out: Percent Control
Sequence of human kinome (Homo sapiens, UniProt P48736) (P48736 whole entry): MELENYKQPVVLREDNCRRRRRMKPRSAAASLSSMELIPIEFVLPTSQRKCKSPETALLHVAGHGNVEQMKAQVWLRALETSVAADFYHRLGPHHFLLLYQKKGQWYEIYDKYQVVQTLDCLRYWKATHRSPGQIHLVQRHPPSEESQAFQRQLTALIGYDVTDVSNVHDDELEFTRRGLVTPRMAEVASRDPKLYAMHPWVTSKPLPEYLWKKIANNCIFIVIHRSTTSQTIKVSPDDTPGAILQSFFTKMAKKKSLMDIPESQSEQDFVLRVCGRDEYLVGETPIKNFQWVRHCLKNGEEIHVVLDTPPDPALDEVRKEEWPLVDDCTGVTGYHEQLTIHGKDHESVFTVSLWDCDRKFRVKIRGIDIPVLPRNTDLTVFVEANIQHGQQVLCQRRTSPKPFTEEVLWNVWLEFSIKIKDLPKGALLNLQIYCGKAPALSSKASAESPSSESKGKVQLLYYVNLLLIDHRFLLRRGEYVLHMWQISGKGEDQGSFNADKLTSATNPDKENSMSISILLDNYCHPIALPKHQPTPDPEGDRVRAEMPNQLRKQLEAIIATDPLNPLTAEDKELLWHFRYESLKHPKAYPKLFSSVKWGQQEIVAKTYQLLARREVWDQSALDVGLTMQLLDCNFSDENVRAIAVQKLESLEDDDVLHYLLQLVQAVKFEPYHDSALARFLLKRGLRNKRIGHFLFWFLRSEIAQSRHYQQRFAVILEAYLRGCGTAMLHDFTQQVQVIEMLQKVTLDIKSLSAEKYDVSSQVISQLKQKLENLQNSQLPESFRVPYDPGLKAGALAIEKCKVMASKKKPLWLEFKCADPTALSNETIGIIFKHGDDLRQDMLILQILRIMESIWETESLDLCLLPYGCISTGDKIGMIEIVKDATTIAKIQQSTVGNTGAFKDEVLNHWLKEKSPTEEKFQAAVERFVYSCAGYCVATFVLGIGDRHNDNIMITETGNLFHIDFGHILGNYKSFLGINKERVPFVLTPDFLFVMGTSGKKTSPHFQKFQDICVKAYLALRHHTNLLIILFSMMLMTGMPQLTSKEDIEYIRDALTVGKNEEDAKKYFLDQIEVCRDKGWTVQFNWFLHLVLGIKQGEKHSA
Procedure, shortened: as §1

human kinome [8] = molecular target: human kinome (Homo sapiens, UniProt Q00532); conditions: CDKL1; 100 nM; read-out: Percent Control
Procedure, shortened: as §1

human kinome [9] = molecular target: human kinome (Homo sapiens, UniProt Q9H093); conditions: kinase SNARK (Entrez NUAK2); compound concentration 1000 nM; read-out: Percent Control
Procedure, shortened: as §1

human kinome [10] = molecular target: human kinome (Homo sapiens, UniProt Q9UQB9); conditions: AURKC; 100 nM; read-out: Percent Control
Procedure, shortened: as §1

human kinome [11] = molecular target: human kinome (Homo sapiens, UniProt O60331); conditions: read-out: Percent Control
Sequence of human kinome (Homo sapiens, UniProt O60331) (O60331 whole entry): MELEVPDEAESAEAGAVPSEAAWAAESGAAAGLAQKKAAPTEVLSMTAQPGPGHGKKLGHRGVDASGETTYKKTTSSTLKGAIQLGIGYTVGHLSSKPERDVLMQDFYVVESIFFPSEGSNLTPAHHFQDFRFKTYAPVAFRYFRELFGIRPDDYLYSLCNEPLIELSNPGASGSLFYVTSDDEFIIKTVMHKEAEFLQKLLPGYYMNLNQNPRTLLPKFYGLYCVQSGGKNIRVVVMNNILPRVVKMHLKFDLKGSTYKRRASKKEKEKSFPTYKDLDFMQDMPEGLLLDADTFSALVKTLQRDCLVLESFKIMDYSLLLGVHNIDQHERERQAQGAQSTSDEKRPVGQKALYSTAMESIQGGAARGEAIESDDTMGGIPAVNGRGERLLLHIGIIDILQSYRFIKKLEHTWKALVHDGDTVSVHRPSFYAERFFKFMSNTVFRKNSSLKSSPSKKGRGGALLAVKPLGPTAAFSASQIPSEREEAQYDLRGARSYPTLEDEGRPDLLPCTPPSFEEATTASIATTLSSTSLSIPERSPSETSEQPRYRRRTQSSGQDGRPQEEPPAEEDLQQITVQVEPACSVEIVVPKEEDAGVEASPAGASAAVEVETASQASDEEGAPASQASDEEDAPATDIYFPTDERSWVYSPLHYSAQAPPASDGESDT
Procedure, shortened: as §1

human kinome [12] = molecular target: human kinome (Homo sapiens, UniProt Q13188); conditions: MST2 (Entrez STK3); 100 nM; read-out: Percent Control
Procedure, shortened: as §1

human kinome [13] = molecular target: human kinome (Homo sapiens, UniProt Q04912); conditions: MST1R; 100 nM; read-out: Percent Control
Procedure, shortened: as §1

human kinome [14] = molecular target: human kinome (Homo sapiens, UniProt P10721, T670I/V559D); conditions: KIT(V559D,T670I); 100 nM; read-out: Percent Control
Procedure, shortened: as §1

human kinome [15] = molecular target: human kinome (Homo sapiens, UniProt Q9Y2H9); conditions: MAST1; 100 nM; read-out: Percent Control
Procedure, shortened: as §1

human kinome [16] = molecular target: human kinome (Homo sapiens, UniProt Q9H3Y6); conditions: kinase SRMS (Entrez SRMS); compound concentration 1000 nM; read-out: Percent Control
Procedure, shortened: as §1

human kinome [17] = molecular target: human kinome (Homo sapiens, UniProt O94768); conditions: DRAK2 (Entrez STK17B); 100 nM; read-out: Percent Control
Procedure, shortened: as §1

human kinome [18] = molecular target: human kinome (Homo sapiens, UniProt P68400); conditions: CSNK2A1; 100 nM; read-out: Percent Control
Procedure, shortened: as §1

human kinome [19] = molecular target: human kinome (Homo sapiens, UniProt P15056, V600E); conditions: BRAF(V600E); 100 nM; read-out: Percent Control
Procedure, shortened: as §1

human kinome [20] = molecular target: human kinome (Homo sapiens, UniProt Q8TF76); conditions: HASPIN (Entrez GSG2); 100 nM; read-out: Percent Control
Procedure, shortened: as §1

human kinome [21] = molecular target: human kinome (Homo sapiens, UniProt Q13153); conditions: read-out: Percent Control
Sequence of human kinome (Homo sapiens, UniProt Q13153) (Q13153 whole entry): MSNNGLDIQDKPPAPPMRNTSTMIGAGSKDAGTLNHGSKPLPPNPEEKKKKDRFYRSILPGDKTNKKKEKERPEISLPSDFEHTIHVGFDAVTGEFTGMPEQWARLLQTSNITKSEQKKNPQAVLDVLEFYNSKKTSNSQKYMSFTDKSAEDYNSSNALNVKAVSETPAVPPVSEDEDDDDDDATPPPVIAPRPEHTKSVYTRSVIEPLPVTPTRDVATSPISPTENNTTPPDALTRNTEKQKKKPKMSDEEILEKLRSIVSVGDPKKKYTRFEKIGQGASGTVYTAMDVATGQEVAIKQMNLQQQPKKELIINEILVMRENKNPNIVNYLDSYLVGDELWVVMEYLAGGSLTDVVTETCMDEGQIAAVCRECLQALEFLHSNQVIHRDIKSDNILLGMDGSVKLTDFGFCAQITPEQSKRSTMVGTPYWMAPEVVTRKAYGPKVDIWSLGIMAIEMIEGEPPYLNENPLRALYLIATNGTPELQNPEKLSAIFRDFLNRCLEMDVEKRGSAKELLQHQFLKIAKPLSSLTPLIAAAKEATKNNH
Procedure, shortened: as §1

human kinome [22] = molecular target: human kinome (Homo sapiens, UniProt P31749); conditions: AKT1; 100 nM; read-out: Percent Control
Procedure, shortened: as §1

human kinome [23] = molecular target: human kinome (Homo sapiens, UniProt O75747); conditions: read-out: Percent Control
Sequence of human kinome (Homo sapiens, UniProt O75747) (O75747 whole entry): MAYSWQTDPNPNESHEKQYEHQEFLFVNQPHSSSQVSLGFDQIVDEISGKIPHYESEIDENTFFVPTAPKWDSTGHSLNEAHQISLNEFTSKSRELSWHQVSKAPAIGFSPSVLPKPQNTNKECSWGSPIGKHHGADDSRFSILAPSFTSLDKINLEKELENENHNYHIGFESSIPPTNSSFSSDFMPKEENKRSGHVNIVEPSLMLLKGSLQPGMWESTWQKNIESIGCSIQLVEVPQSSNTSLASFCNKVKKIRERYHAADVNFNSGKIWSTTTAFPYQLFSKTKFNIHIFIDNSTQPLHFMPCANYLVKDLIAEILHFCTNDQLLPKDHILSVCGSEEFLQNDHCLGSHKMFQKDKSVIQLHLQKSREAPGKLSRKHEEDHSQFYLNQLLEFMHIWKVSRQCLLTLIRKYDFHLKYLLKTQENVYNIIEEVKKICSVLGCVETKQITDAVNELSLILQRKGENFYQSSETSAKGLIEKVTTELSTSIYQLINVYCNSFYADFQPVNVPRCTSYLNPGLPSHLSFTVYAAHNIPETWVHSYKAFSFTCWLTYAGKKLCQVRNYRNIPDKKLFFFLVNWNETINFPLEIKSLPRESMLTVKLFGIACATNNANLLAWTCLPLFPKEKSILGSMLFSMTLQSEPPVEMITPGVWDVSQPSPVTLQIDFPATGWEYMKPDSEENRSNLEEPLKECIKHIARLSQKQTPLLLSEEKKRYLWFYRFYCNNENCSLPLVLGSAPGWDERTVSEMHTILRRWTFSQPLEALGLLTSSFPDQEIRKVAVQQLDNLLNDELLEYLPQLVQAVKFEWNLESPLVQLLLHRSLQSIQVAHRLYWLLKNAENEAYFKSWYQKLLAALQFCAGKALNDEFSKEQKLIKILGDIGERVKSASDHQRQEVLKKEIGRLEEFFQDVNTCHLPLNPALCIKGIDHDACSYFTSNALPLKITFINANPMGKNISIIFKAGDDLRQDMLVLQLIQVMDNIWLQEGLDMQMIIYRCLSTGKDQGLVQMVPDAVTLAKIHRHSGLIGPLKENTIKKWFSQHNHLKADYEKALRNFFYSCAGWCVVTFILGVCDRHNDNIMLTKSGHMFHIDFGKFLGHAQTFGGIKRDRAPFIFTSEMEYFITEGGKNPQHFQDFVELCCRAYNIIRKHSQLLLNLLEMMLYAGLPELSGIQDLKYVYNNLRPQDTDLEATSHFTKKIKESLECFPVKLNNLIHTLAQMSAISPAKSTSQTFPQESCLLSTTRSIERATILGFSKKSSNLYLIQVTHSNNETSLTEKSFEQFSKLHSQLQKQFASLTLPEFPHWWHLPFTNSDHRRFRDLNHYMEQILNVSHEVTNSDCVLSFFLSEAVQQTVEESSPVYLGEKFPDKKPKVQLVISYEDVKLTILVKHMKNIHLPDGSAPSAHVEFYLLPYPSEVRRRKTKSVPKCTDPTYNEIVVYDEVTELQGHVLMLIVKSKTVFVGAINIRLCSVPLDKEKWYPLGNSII
Procedure, shortened: as §1

human kinome [24] = molecular target: human kinome (Homo sapiens, UniProt P08922); conditions: kinase ROS1 (Entrez ROS1); compound concentration 1000 nM; read-out: Percent Control
Procedure, shortened: as §1

human kinome [25] = molecular target: human kinome (Homo sapiens, UniProt P53350); conditions: read-out: Percent Control
Sequence of human kinome (Homo sapiens, UniProt P53350) (P53350 whole entry): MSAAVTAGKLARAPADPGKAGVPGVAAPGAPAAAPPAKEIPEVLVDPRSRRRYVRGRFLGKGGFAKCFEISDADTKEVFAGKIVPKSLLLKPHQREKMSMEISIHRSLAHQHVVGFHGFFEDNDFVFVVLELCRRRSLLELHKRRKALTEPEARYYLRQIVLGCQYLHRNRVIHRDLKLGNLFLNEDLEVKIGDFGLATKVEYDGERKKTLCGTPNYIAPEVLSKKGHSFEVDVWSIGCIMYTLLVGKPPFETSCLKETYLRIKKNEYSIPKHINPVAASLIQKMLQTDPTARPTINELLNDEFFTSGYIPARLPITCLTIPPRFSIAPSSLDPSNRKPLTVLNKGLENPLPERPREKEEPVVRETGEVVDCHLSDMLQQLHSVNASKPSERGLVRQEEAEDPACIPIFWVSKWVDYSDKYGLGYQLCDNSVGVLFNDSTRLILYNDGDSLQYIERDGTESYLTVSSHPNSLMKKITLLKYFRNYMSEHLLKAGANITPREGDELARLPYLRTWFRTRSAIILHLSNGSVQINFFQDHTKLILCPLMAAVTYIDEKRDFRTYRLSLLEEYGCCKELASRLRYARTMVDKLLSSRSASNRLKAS
Procedure, shortened: as §1

human kinome [26] = molecular target: human kinome (Homo sapiens, UniProt Q12851); conditions: MAP4K2; 100 nM; read-out: Percent Control
Procedure, shortened: as §1

human kinome [27] = molecular target: human kinome (Homo sapiens, UniProt P54764); conditions: EPHA4; 100 nM; read-out: Percent Control
Procedure, shortened: as §1

human kinome [28] = molecular target: human kinome (Homo sapiens, UniProt Q02779); conditions: MLK2 (Entrez MAP3K10); 100 nM; read-out: Percent Control
Procedure, shortened: as §1

human kinome [29] = molecular target: human kinome (Homo sapiens, UniProt Q92772); conditions: CDKL2; 100 nM; read-out: Percent Control
Procedure, shortened: as §1

human kinome [30] = molecular target: human kinome (Homo sapiens, UniProt P21860); conditions: ERBB3; 100 nM; read-out: Percent Control
Procedure, shortened: as §1

Sequence of human kinome (Homo sapiens, UniProt P51817) (P51817 whole entry): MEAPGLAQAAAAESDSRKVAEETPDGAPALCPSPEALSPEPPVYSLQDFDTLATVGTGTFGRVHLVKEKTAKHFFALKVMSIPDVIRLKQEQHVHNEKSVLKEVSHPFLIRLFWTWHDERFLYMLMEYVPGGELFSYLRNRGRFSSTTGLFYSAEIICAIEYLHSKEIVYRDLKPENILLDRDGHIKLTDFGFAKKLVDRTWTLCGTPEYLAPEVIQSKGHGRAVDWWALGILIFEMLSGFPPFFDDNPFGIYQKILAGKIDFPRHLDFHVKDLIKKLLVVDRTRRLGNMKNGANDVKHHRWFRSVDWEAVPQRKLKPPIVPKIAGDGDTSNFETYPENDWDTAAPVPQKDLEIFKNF

COc1cc(F)ccc1-c1cc(Nc2cc(CS(C)(=N)=O)ccn2)ncc1F (stereo not shown) [VIP152]
remaining binding at 0.1 µM (human kinome [1]; PRKX, 100 nM): 100%
remaining binding at 1 µM (human kinome [1]; kinase PRKX (Entrez PRKX), compound concentration 1000 nM): 99%
remaining binding at 1 µM (human kinome [2]): 16%
remaining binding at 0.1 µM (human kinome [3]): 91%
remaining binding at 1 µM (human kinome [4]): 100%
remaining binding at 1 µM (human kinome [5]): 73%
remaining binding at 0.1 µM (human kinome [6]; PIM2, 100 nM): 100%
remaining binding at 1 µM (human kinome [6]; kinase PIM2 (Entrez PIM2), compound concentration 1000 nM): 100%
remaining binding at 0.1 µM (human kinome [7]; PIK3CG, 100 nM): 100%
remaining binding at 1 µM (human kinome [7]; kinase PIK3CG (Entrez PIK3CG), compound concentration 1000 nM): 97%
remaining binding at 0.1 µM (human kinome [8]): 69%
remaining binding at 1 µM (human kinome [9]): 78%
remaining binding at 0.1 µM (human kinome [10]): 100%
remaining binding at 0.1 µM (human kinome [11]; PIP5K1C, 100 nM): 60%
remaining binding at 1 µM (human kinome [11]; kinase PIP5K1C (Entrez PIP5K1C), compound concentration 1000 nM): 92%
remaining binding at 0.1 µM (human kinome [12]): 99%
remaining binding at 0.1 µM (human kinome [13]): 100%
remaining binding at 0.1 µM (human kinome [14]): 100%
remaining binding at 0.1 µM (human kinome [15]): 94%
remaining binding at 1 µM (human kinome [16]): 83%
remaining binding at 0.1 µM (human kinome [17]): 100%
remaining binding at 0.1 µM (human kinome [18]): 100%
remaining binding at 0.1 µM (human kinome [19]): 100%
remaining binding at 0.1 µM (human kinome [20]): 93%
remaining binding at 0.1 µM (human kinome [21]; PAK1, 100 nM): 100%
remaining binding at 1 µM (human kinome [21]; kinase PAK1 (Entrez PAK1), compound concentration 1000 nM): 100%
remaining binding at 0.1 µM (human kinome [22]): 100%
remaining binding at 0.1 µM (human kinome [23]; PIK3C2G, 100 nM): 100%
remaining binding at 1 µM (human kinome [23]; kinase PIK3C2G (Entrez PIK3C2G), compound concentration 1000 nM): 94%
remaining binding at 1 µM (human kinome [24]): 80%
remaining binding at 0.1 µM (human kinome [25]; PLK1, 100 nM): 100%
remaining binding at 1 µM (human kinome [25]; kinase PLK1 (Entrez PLK1), compound concentration 1000 nM): 89%
remaining binding at 0.1 µM (human kinome [26]): 80%
remaining binding at 0.1 µM (human kinome [27]): 73%
remaining binding at 0.1 µM (human kinome [28]): 100%
remaining binding at 0.1 µM (human kinome [29]): 100%
remaining binding at 0.1 µM (human kinome [30]): 100%
